Laboratory results: patent publication US20170238571A1, “A SYNERGISTIC COMPOSITION COMPRISING A MIXTURE OF BACTERIA OF THE GENERA LACTOBACILLUS AND PROPIONOBACTERIUM PARTICULARLY USEFUL TO REDUCE OR ELIMINATE PATHOGEN CONTAMINATION IN SOYBEN MEAL AND ITS DERIVATIVES; METHODS AND USES THEREOF” (Molinos Río de la Plata S.A., priority 2014, published 2017)

Columns and labels:
[1] = system: Salmonella (S. typhimurium, S. enteritidis, S. heidelberg); assay: Salmonella elimination in contaminated soybean meal: independent ferments vs. mixes (synergistic effect); assay type: cell-based; details: 25° C. - 12% DBM; for Average (n = 3): Salmonella count; for LOG10 (CFU/g) / Reduction %: Salmonella
Method: (§1) In order to assess the effectiveness of the mix of the invention in the matrix of interest, an appropriate working protocol was prepared. Initially, 500 g of soybean meal were infected with 50 mL of Salmonella solution whose composition was: 10^6 CFUS. typhimurium/mL, 10^6 CFUS. enteritidis /mLand 10^6 CFUS. heidelberg /mL in equal amounts. […] 50 g of the wet meal obtained (≈25% moisture content on dry basis) were mixed within the dry meal (≈10% moisture content dry basis) and were stirred for 10 minutes. […] Daily determinations of Salmonella colony forming units were performed on this contaminated meal. To this end, 40.5 g of BPW to 4.5 g of the resulting meal were added and vigorously stirred, and then 100μL of this solution, were plated onto Salmonella-Shigella agar (SS Agar). When microorganisms were used in the protecting mixes, concentrations were carefully balanced, and the amount of bacteria added was always the same.
(§2) In the cases in which solutions with ferments were used for protection purposes, cell concentration was of about 10^8 CFU/mL.
Using the protocol described above, the effects caused by the individual strains were assessed and then compared with the effect obtained after mixing them together. […] In order to come closer to the actual values, whenever a ND value was obtained using the methodology described above, a new dilution factor was applied; each time by adding only 18 g of buffer (stirring thoroughly and then spinning), and 200 μL of this solution were plated for recounting. […] This new protocol was only used to determine the effect of the different mixes. In turn, the results obtained herein are shown using the following formula: […]
Thus, the percentage of Salmonella elimination in meal was calculated for different mixes, as well as for each ferment individually.

[2] = system: Salmonella (S. typhimurium, S. enteritidis, S. heidelberg); assay: Effectiveness of mixes against Salmonella in soybean meal at different temperatures; assay type: cell-based; details: for Average (n = 3): Salmonella count; for LOG10 (CFU/g): Salmonella
Method: as §1, §2
The following tests were carried out to assess the effectiveness of different mixes under different conditions. To assess extreme temperatures, meal products were stored at 5, 25, and 32° C., after contamination and protection, respectively. Samples were taken every 24 hours and triplicate determinations of Salmonella, lactic and propionic bacteria were made.

[3] = 0 days, first series (0-6 days)
[4] = 0 days, second series (0-3 days)
[5] = 1 day, second series (0-3 days)
[6] = 2 days, first series (0-6 days)
[7] = 2 days, second series (0-3 days)
[8] = 3 days, first series (0-6 days)
[9] = 3 days, second series (0-3 days)
[10] = 4 days, first series (0-6 days)
[11] = 5 days, first series (0-6 days)
[12] = 6 days, first series (0-6 days)

## CCC(=O)O [Propionic Acid]
[1]; [3]
  Average (n = 3): 199.67
  LOG10 (CFU/g): 3.65 LOG10 (CFU/g)
  Reduction %: 0.00%
[1]; [4]
  Average (n = 3): 199.67
  LOG10 (CFU/g): 3.65 LOG10 (CFU/g)
  Reduction %: 0.00%
[1]; 1 day, first series (0-6 days)
  Average (n = 3): 145
  LOG10 (CFU/g): 3.51 LOG10 (CFU/g)
  Reduction %: 3.81%
[1]; [5]
  Average (n = 3): 145
  LOG10 (CFU/g): 3.51 LOG10 (CFU/g)
  Reduction %: 3.81%
[1]; [6]
  Average (n = 3): 110
  LOG10 (CFU/g): 3.39 LOG10 (CFU/g)
  Reduction %: 7.10%
[1]; [7]
  Average (n = 3): 110
  LOG10 (CFU/g): 3.39 LOG10 (CFU/g)
  Reduction %: 7.10%
[1]; [8]
  Average (n = 3): 90
  LOG10 (CFU/g): 3.30 LOG10 (CFU/g)
  Reduction %: 9.49%
[1]; [9]
  Average (n = 3): 90
  LOG10 (CFU/g): 3.30 LOG10 (CFU/g)
  Reduction %: 9.49%
[1]; [10]
  Average (n = 3): 60.67
  LOG10 (CFU/g): 3.13 LOG10 (CFU/g)
  Reduction %: 14.22%
[1]; [11]
  Average (n = 3): 57
  LOG10 (CFU/g): 3.10 LOG10 (CFU/g)
  Reduction %: 14.93%
[1]; [12]
  Average (n = 3): 38.33
  LOG10 (CFU/g): 2.93 LOG10 (CFU/g)
  Reduction %: 19.76%
[2]; 5° C. - 12% DBM, 0 days
  Average (n = 3): 199.76
  LOG10 (CFU/g): 3.65 LOG10 (CFU/g)
[2]; 5° C. - 12% DBM, 1 day
  Average (n = 3): 165
  LOG10 (CFU/g): 3.56 LOG10 (CFU/g)
[2]; 5° C. - 12% DBM, 2 days
  Average (n = 3): 131.3
  LOG10 (CFU/g): 3.47 LOG10 (CFU/g)
[2]; 5° C. - 12% DBM, 3 days
  Average (n = 3): 90.67
  LOG10 (CFU/g): 3.30 LOG10 (CFU/g)
[2]; 5° C. - 12% DBM, 4 days
  Average (n = 3): 61
  LOG10 (CFU/g): 3.13 LOG10 (CFU/g)
[2]; 5° C. - 12% DBM, 5 days
  Average (n = 3): 57
  LOG10 (CFU/g): 3.10 LOG10 (CFU/g)
[2]; 5° C. - 12% DBM, 6 days
  Average (n = 3): 38
  LOG10 (CFU/g): 2.93 LOG10 (CFU/g)
[2]; 25° C. - 12% DBM, 0 days
  Average (n = 3): 199.67
  LOG10 (CFU/g): 3.65 LOG10 (CFU/g)
[2]; 25° C. - 12% DBM, 1 day
  Average (n = 3): 145.33
  LOG10 (CFU/g): 3.51 LOG10 (CFU/g)
[2]; 25° C. - 12% DBM, 2 days
  Average (n = 3): 110
  LOG10 (CFU/g): 3.39 LOG10 (CFU/g)
[2]; 25° C. - 12% DBM, 3 days
  Average (n = 3): 90
  LOG10 (CFU/g): 3.30 LOG10 (CFU/g)
[2]; 25° C. - 12% DBM, 4 days
  Average (n = 3): 60.67
  LOG10 (CFU/g): 3.13 LOG10 (CFU/g)
[2]; 25° C. - 12% DBM, 5 days
  Average (n = 3): 57
  LOG10 (CFU/g): 3.10 LOG10 (CFU/g)
[2]; 25° C. - 12% DBM, 6 days
  Average (n = 3): 38
  LOG10 (CFU/g): 2.93 LOG10 (CFU/g)
[2]; 32° C. - 12% DBM, 0 days
  Average (n = 3): 199.67
  LOG10 (CFU/g): 3.65 LOG10 (CFU/g)
[2]; 32° C. - 12% DBM, 1 day
  Average (n = 3): 175
  LOG10 (CFU/g): 3.59 LOG10 (CFU/g)
[2]; 32° C. - 12% DBM, 2 days
  Average (n = 3): 130
  LOG10 (CFU/g): 3.46 LOG10 (CFU/g)
[2]; 32° C. - 12% DBM, 3 days
  Average (n = 3): 100.33
  LOG10 (CFU/g): 3.35 LOG10 (CFU/g)
[2]; 32° C. - 12% DBM, 4 days
  Average (n = 3): 90.67
  LOG10 (CFU/g): 3.30 LOG10 (CFU/g)
[2]; 32° C. - 12% DBM, 5 days
  Average (n = 3): 77
  LOG10 (CFU/g): 3.23 LOG10 (CFU/g)
[2]; 32° C. - 12% DBM, 6 days
  Average (n = 3): 58
  LOG10 (CFU/g): 3.11 LOG10 (CFU/g)
